Laboratory results as given in ChEMBL document CHEMBL3739374, “Synthesis and evaluation of anticancer activity of novel andrographolide derivatives” (Medchemcomm, 2015).
In brackets after ≈: the same amount, converted by molar mass.

Assays:
HeLa = experiment: Cytotoxicity against human HeLa cells by MTT assay; assay type: functional, cell-based
[1] = Cytotoxicity against rat IEC-6 cells by MTT assay; assay type: cell-based
ACHN = experiment: Cytotoxicity against human ACHN cells by MTT assay; assay type: functional, cell-based
B16 = experiment: Cytotoxicity against mouse B16 cells by MTT assay; assay type: functional, cell-based
A549 = experiment: Cytotoxicity against human A549 cells by MTT assay; assay type: functional, cell-based

Compound	IC50 (HeLa) [µg/mL]	IC50 [1] [µg/mL]	IC50 (ACHN) [µg/mL]	IC50 (B16) [µg/mL]	IC50 (A549) [µg/mL]
C=C1CC[C@@H]2[C@](C)(CO)[C@H](O)CC[C@@]2(C)[C@@H]1/C=C/C1=CCOC1=O	149 (≈ 448 µM)	169 (≈ 509 µM)	328 (≈ 986 µM)	25.2 (≈ 75.7 µM)	117 (≈ 353 µM)
C=C1CC[C@@H]2[C@]3(C)CO[C@@H](c4ccccc4)O[C@@H]3CC[C@@]2(C)[C@@H]1C/C=C1/C(=O)OC[C@H]1O	3.8 (≈ 8.66 µM)	19.2 (≈ 43.8 µM)	4.78 (≈ 10.9 µM)	9.54 (≈ 21.8 µM)	4.07 (≈ 9.28 µM)
C[C@@H]1OC[C@@]2(C)[C@H]3CC[C@@]4(CO4)[C@@H](/C=C/C4=CCOC4=O)[C@]3(C)CC[C@H]2O1	7.78 (≈ 20.8 µM)	35.1 (≈ 93.6 µM)	57.3 (≈ 153 µM)	44.1 (≈ 118 µM)	18.2 (≈ 48.6 µM)
C=C1CC[C@@H]2[C@]3(C)CO[C@@H](CCCCC)O[C@@H]3CC[C@@]2(C)[C@@H]1C/C=C1/C(=O)OC[C@H]1O	8.51 (≈ 19.7 µM)	22.4 (≈ 51.7 µM)	9.54 (≈ 22.1 µM)	10 (≈ 23.1 µM)	7.07 (≈ 16.3 µM)
C=C1CC[C@@H]2[C@]3(C)CO[C@@H](C)O[C@@H]3CC[C@@]2(C)[C@@H]1C/C=C1/C(=O)OC[C@H]1O	4.27 (≈ 11.3 µM)	6.34 (≈ 16.8 µM)	2.47 (≈ 6.56 µM)	4.78 (≈ 12.7 µM)	2.43 (≈ 6.45 µM)
C=C1CC[C@@H]2[C@]3(C)CO[C@@H](C)O[C@@H]3CC[C@@]2(C)[C@@H]1/C=C/C1=CCOC1=O	56.2 (≈ 157 µM)	94.3 (≈ 263 µM)	125 (≈ 349 µM)	62 (≈ 173 µM)	88.7 (≈ 247 µM)
C=C1CC[C@@H]2[C@]3(C)CO[C@@H](C)O[C@@H]3CC[C@@]2(C)[C@@H]1C/C=C1\C=COC1=O	48.6 (≈ 135 µM)	40 (≈ 112 µM)	60.6 (≈ 169 µM)	43 (≈ 120 µM)	46.9 (≈ 131 µM)
C=C1CC[C@@H]2[C@]3(C)CO[C@@H](CCC)O[C@@H]3CC[C@@]2(C)[C@@H]1C/C=C1/C(=O)OC[C@H]1O	27 (≈ 66.8 µM)	14.1 (≈ 35 µM)	32.9 (≈ 81.4 µM)	44.4 (≈ 110 µM)	23 (≈ 56.8 µM)
C=C1CC[C@@H]2[C@]3(C)CO[C@@H](C)O[C@@H]3CC[C@@]2(C)[C@@H]1C/C=C1/C(=O)OC[C@H]1OC(C)=O	4.43 (≈ 10.6 µM)	7.23 (≈ 17.3 µM)	8.54 (≈ 20.4 µM)	4.01 (≈ 9.58 µM)	3.34 (≈ 7.98 µM)
CC(=O)O[C@@H]1COC(=O)/C1=C/C[C@@H]1[C@@]2(CC[C@@H]3[C@]4(C)CO[C@@H](C)O[C@@H]4CC[C@]31C)CO2	7.12 (≈ 16.4 µM)	14.5 (≈ 33.4 µM)	5.58 (≈ 12.8 µM)	6.98 (≈ 16.1 µM)	4.37 (≈ 10.1 µM)
C[C@@H]1OC[C@@]2(C)[C@H]3CC[C@@]4(CO4)[C@@H](C/C=C4/C(=O)OC[C@H]4O)[C@]3(C)CC[C@H]2O1	6.97 (≈ 17.8 µM)	8.76 (≈ 22.3 µM)	4.49 (≈ 11.4 µM)	6.34 (≈ 16.2 µM)	4.34 (≈ 11.1 µM)
C=C1CC[C@@H]2[C@]3(C)CO[C@@H](CC)O[C@@H]3CC[C@@]2(C)[C@@H]1C/C=C1/C(=O)OC[C@H]1O	8.91 (≈ 22.8 µM)	14.2 (≈ 36.4 µM)	14.7 (≈ 37.6 µM)	10.2 (≈ 26.2 µM)	8.12 (≈ 20.8 µM)
C=C1CC[C@@H]2[C@]3(C)CO[C@@H](CCCC)O[C@@H]3CC[C@@]2(C)[C@@H]1C/C=C1/C(=O)OC[C@H]1O	14.1 (≈ 33.6 µM)	31.2 (≈ 74.6 µM)	15.3 (≈ 36.7 µM)	21.1 (≈ 50.4 µM)	33.5 (≈ 80.1 µM)
C=C1CC[C@@H]2[C@](C)(CO)[C@H](O)CC[C@@]2(C)[C@@H]1C/C=C1/C(=O)OC[C@H]1O [ANDROGRAPHOLIDE]	10.4 (≈ 29.7 µM)	8.26 (≈ 23.6 µM)	3.03 (≈ 8.65 µM)	7.54 (≈ 21.5 µM)	9.71 (≈ 27.7 µM)
COc1cccc2c1C(=O)c1c(O)c3c(c(O)c1C2=O)C[C@@](O)(C(=O)CO)C[C@@H]3O[C@H]1C[C@H](N)[C@H](O)[C@H](C)O1 [DOXORUBICIN]	1.28 (≈ 2.35 µM)	2.6 (≈ 4.78 µM)	2.08 (≈ 3.83 µM)	3.16 (≈ 5.81 µM)	–
